Laboratory results taken from patent US9193733B2, “Piperidinylcyclobutyl substituted pyrrolopyridine and pyrrolopyrimidine derivatives as JAK inhibitors” (Incyte Corporation, priority 2012, dated 2015).
Where a name gives a salt, the structure may show the parent alone.

What was measured:
Format in all cases: biochemical
[1] = molecular target: T1, human JAK1 (a.a. 837-1142) catalytic domain (Homo sapiens, UniProt P23458); assay: In vitro JAK kinase assay (HTRF, phosphorylation of a biotinylated peptide), JAK1; details: 1 mM ATP
T1 construct: human JAK1 (a.a. 837-1142) and JAK2 (a.a. 828-1132); His tag (N); made in house; host or cells: insect cells (baculovirus)
T1 sequence (P23458 849-1154): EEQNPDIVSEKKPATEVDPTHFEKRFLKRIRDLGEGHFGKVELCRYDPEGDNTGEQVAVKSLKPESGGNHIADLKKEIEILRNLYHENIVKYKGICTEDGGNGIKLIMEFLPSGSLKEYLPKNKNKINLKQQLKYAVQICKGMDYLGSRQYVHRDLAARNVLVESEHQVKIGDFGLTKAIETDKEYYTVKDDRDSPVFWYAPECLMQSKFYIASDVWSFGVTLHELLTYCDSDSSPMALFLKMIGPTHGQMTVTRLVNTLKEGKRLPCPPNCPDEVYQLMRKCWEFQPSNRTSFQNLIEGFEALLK
Description: (§1) Compounds herein were tested for inhibitory activity of JAK targets according to the following in vitro assay described in Park et al., Analytical Biochemistry 1999, 269, 94-104. The catalytic domains of human JAK1 (a.a. 837-1142) and JAK2 (a.a. 828-1132) with an N-terminal His tag were expressed using baculovirus in insect cells and purified. The catalytic activity of JAK1 and JAK2 was assayed by measuring the phosphorylation of a biotinylated peptide. The phosphorylated peptide was detected by homogenous time resolved fluorescence (HTRF). IC50s of compounds were measured for each kinase in the 40 microL reactions that contain the enzyme, ATP and 500 nM peptide in 50 mM Tris (pH 7.8) buffer with 100 mM NaCl, 5 mM DTT, and 0.1 mg/mL (0.01%) BSA. For the 1 mM IC50 measurements, ATP concentration in the reactions was 1 mM. Reactions were carried out at room temperature for 1 hour and then stopped with 20 μL 45 mM EDTA, 300 nM SA-APC, 6 nM Eu-Py20 in assay buffer (Perkin Elmer, Boston, Mass.). Binding to the Europium labeled antibody took place for 40 minutes and HTRF signal was measured on a Fusion plate reader (Perkin Elmer, Boston, Mass.). See Table A for data related to compounds of the Examples (at 1 mM). Data is indicated as ranges: <20 nM (+), 20 to <150 nM (++), 150 to 500 nM (+++).

[2] = tested on: human JAK1 (a.a. 837-1142) catalytic domain; assay: as above; details: ratio of JAK2 IC50 to JAK1 IC50, 1 mM ATP
Description: as §1

[3] = molecular target: T2, human JAK2 (a.a. 828-1132) catalytic domain (Homo sapiens, UniProt O60674); assay: In vitro JAK kinase assay (HTRF, phosphorylation of a biotinylated peptide), JAK2; details: 1 mM ATP
T2 construct: human JAK1 (a.a. 837-1142) and JAK2 (a.a. 828-1132); His tag (N); made in house; host or cells: insect cells (baculovirus)
T2 sequence (O60674 828-1132): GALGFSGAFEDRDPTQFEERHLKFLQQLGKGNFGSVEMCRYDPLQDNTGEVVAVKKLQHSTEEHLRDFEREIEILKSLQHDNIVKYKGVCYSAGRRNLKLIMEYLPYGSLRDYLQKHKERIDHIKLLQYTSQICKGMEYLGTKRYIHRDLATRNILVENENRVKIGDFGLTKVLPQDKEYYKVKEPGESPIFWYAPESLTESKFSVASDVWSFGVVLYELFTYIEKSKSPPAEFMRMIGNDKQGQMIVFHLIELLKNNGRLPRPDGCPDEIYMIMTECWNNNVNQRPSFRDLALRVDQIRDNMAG
Description: as §1

| SMILES | IC50 [1] | JAK2/JAK1 [2] | IC50 [3] |
| --- | --- | --- | --- |
| N#CC[C@]1(n2cc(-c3ncnc4[nH]ccc34)cn2)C[C@H](N2CCC(Oc3cc(Cn4cncn4)cc(C(F)(F)F)n3)CC2)C1 [Example 23, [trans-1-[4-(7H-pyrrolo[2,3-d]pyrimidin-4-yl)-1H-pyrazol-1-yl]-3-(4-{[4-(1H-1,2,4-triazol-1-ylmethyl)-6-(trifluoromethyl)pyridin-2-yl]oxy}piperidin-1-yl)cyclobutyl]acetonitrile] | < 20 nM | >10 | 20 to 150 nM |
| C[C@H](O)CNCc1cc(OC2CCN([C@H]3C[C@](CC#N)(n4cc(-c5ncnc6[nH]ccc56)cn4)C3)CC2)nc(C(F)(F)F)c1 [Example 15, {trans-3-(4-{[4-({[(2S)-2-hydroxypropyl]amino}methyl)-6-(trifluoromethyl)pyridin-2-yl]oxy}piperidin-1-yl)-1-[4-(7H-pyrrolo[2,3-d]pyrimidin-4-yl)-1H-pyrazol-1-yl]cyclobutyl}acetonitrile] | < 20 nM | >10 | 20 to 150 nM |
| C[C@@H](CO)NCc1cc(OC2CCN([C@H]3C[C@](CC#N)(n4cc(-c5ncnc6[nH]ccc56)cn4)C3)CC2)nc(C(F)(F)F)c1 [Example 1, {trans-3-(4-{[4-({[(1S)-2-hydroxy-1-methylethyl]amino}methyl)-6-(trifluoromethyl)pyridin-2-yl]oxy}piperidin-1-yl)-1-[4-(7H-pyrrolo[2,3-d]pyrimidin-4-yl)-1H-pyrazol-1-yl]cyclobutyl}acetonitrile] | < 20 nM | >10 | 20 to 150 nM |
| CC1(NCc2cc(OC3CCN([C@H]4C[C@](CC#N)(n5cc(-c6ncnc7[nH]ccc67)cn5)C4)CC3)nc(C(F)(F)F)c2)COC1 [Example 9, {trans-3-(4-{[4-{[(3-methyloxetan-3-yl)amino]methyl}-6-(trifluoromethyl)pyridin-2-yl]oxy}piperidin-1-yl)-1-[4-(7H-pyrrolo[2,3-d]pyrimidin-4-yl)-1H-pyrazol-1-yl]cyclobutyl}acetonitrile] | < 20 nM | >10 | 20 to 150 nM |
| CC1(C)CN(Cc2cc(OC3CCN([C@H]4C[C@](CC#N)(n5cc(-c6ncnc7[nH]ccc67)cn5)C4)CC3)nc(C(F)(F)F)c2)C1 [Example 13, {trans-3-(4-{[4-[(3,3-dimethylazetidin-1-yl)methyl]-6-(trifluoromethyl)pyridin-2-yl]oxy}piperidin-1-yl)-1-[4-(7H-pyrrolo[2,3-d]pyrimidin-4-yl)-1H-pyrazol-1-yl]cyclobutyl}acetonitrile] | < 20 nM | >10 | 20 to 150 nM |
| N#CC[C@]1(n2cc(-c3ncnc4[nH]ccc34)cn2)C[C@H](N2CCC(Oc3cc(C4(N)COC4)cc(C(F)(F)F)n3)CC2)C1 [Example 50, {trans-3-(4-{[4-(3-aminooxetan-3-yl)-6-(trifluoromethyl)pyridin-2-yl]oxy}piperidin-1-yl)-1-[4-(7H-pyrrolo[2,3-d]pyrimidin-4-yl)-1H-pyrazol-1-yl]cyclobutyl}acetonitrile] | < 20 nM | >10 | 20 to 150 nM |
| N#CC[C@]1(n2cc(-c3ncnc4[nH]ccc34)cn2)C[C@H](N2CCC(Oc3cc(CN(CCO)CCO)cc(C(F)(F)F)n3)CC2)C1 [Example 16, {trans-3-(4-{[4-{[bis(2-hydroxyethyl)amino]methyl}-6-(trifluoromethyl)pyridin-2-yl]oxy}piperidin-1-yl)-1-[4-(7H-pyrrolo[2,3-d]pyrimidin-4-yl)-1H-pyrazol-1-yl]cyclobutyl}acetonitrile] | < 20 nM | >10 | 20 to 150 nM |
| N#CC[C@]1(n2cc(-c3ncnc4[nH]ccc34)cn2)C[C@H](N2CCC(Oc3cc(Cn4ccnc4)cc(C(F)(F)F)n3)CC2)C1 [Example 22, {trans-3-(4-{[4-(1H-imidazol-1-ylmethyl)-6-(trifluoromethyl)pyridin-2-yl]oxy}piperidin-1-yl)-1-[4-(7H-pyrrolo[2,3-d]pyrimidin-4-yl)-1H-pyrazol-1-yl]cyclobutyl}acetonitrile] | < 20 nM | >10 | 20 to 150 nM |

Next, values leading:

| IC50 [1] | JAK2/JAK1 [2] | IC50 [3] | SMILES |
| --- | --- | --- | --- |
| < 20 nM | >10 | 20 to 150 nM | N#CC[C@]1(n2cc(-c3ncnc4[nH]ccc34)cn2)C[C@H](N2CCC(Oc3cc(CNC4COC4)cc(C(F)(F)F)n3)CC2)C1 [Example 11, {trans-3-(4-{[4-[(oxetan-3-ylamino)methyl]-6-(trifluoromethyl)pyridin-2-yl]oxy}piperidin-1-yl)-1-[4-(7H-pyrrolo[2,3-d]pyrimidin-4-yl)-1H-pyrazol-1-yl]cyclobutyl}acetonitrile] |
| < 20 nM | >10 | 20 to 150 nM | CCNCc1cc(N(C)C2CCN([C@H]3C[C@](CC#N)(n4cc(-c5ncnc6[nH]ccc56)cn4)C3)CC2)nc(C(F)(F)F)c1 [Example 48, {trans-3-{4-[[4-[(ethylamino)methyl]-6-(trifluoromethyl)pyridin-2-yl](methyl)amino]piperidin-1-yl}-1-[4-(7H-pyrrolo[2,3-d]pyrimidin-4-yl)-1H-pyrazol-1-yl]cyclobutyl}acetonitrile] |
| < 20 nM | >10 | 20 to 150 nM | N#CC[C@]1(n2cc(-c3ncnc4[nH]ccc34)cn2)C[C@H](N2CCC(Nc3cc(CO)nc(C(F)(F)F)n3)CC2)C1 [Example 27, {trans-3-(4-{[6-(hydroxymethyl)-2-(trifluoromethyl)pyrimidin-4-yl]amino}piperidin-1-yl)-1-[4-(7H-pyrrolo[2,3-d]pyrimidin-4-yl)-1H-pyrazol-1-yl]cyclobutyl}acetonitrile] |
| < 20 nM | >10 | 20 to 150 nM | N#CC[C@]1(n2cc(-c3ncnc4[nH]ccc34)cn2)C[C@H](N2CCC(Oc3cc(CN[C@H]4C[C@@H](O)C4)cc(C(F)(F)F)n3)CC2)C1 [Example 18, {trans-3-(4-{[4-{[(cis-3-hydroxycyclobutyl)amino]methyl}-6-(trifluoromethyl)pyridin-2-yl]oxy}piperidin-1-yl)-1-[4-(7H-pyrrolo[2,3-d]pyrimidin-4-yl)-1H-pyrazol-1-yl]cyclobutyl}acetonitrile 3.6 x trifluoroacetate salt] |
| < 20 nM | >10 | 150 to 500 nM | CN(c1cc(CO)cc(C(F)(F)F)n1)C1CCN([C@H]2C[C@](CC#N)(n3cc(-c4ncnc5[nH]ccc45)cn3)C2)CC1 [Example 47, {trans-3-{4-[[4-(hydroxymethyl)-6-(trifluoromethyl)pyridin-2-yl](methyl)amino]piperidin-1-yl}-1-[4-(7H-pyrrolo[2,3-d]pyrimidin-4-yl)-1H-pyrazol-1-yl]cyclobutyl}acetonitrile] |
| < 20 nM | >10 | 20 to 150 nM | N#CC[C@]1(n2cc(-c3ncnc4[nH]ccc34)cn2)C[C@H](N2CCC(Nc3cc(CN[C@H]4C[C@H](O)C4)cc(C(F)(F)F)n3)CC2)C1 [Example 34, {trans-3-(4-{[4-{[(trans-3-hydroxycyclobutyl)amino]methyl}-6-(trifluoromethyl)pyridin-2-yl]amino}piperidin-1-yl)-1-[4-(7H-pyrrolo[2,3-d]pyrimidin-4-yl)-1H-pyrazol-1-yl]cyclobutyl}acetonitrile] |
| < 20 nM | >10 | 20 to 150 nM | N#CC[C@]1(n2cc(-c3ncnc4[nH]ccc34)cn2)C[C@H](N2CCC(Oc3cc(CN[C@H]4C[C@H](O)C4)cc(C(F)(F)F)n3)CC2)C1 [Example 12, {trans-3-(4-{[4-{[(trans-3-hydroxycyclobutyl)amino]methyl}-6-(trifluoromethyl)pyridin-2-yl]oxy}piperidin-1-yl)-1-[4-(7H-pyrrolo[2,3-d]pyrimidin-4-yl)-1H-pyrazol-1-yl]cyclobutyl}acetonitrile] |
| < 20 nM | >10 | 20 to 150 nM | N#CC[C@]1(n2cc(-c3ncnc4[nH]ccc34)cn2)C[C@H](N2CCC(Oc3cc(CN[C@H]4CCOC4)cc(C(F)(F)F)n3)CC2)C1 [Example 7, [trans-1-[4-(7H-pyrrolo[2,3-d]pyrimidin-4-yl)-1H-pyrazol-1-yl]-3-(4-{[4-{[(3S)-tetrahydrofuran-3-ylamino]methyl}-6-(trifluoromethyl)pyridin-2-yl]oxy}piperidin-1-yl)cyclobutyl]acetonitrile] |
| < 20 nM | >10 | 20 to 150 nM | N#CC[C@]1(n2cc(-c3ncnc4[nH]ccc34)cn2)C[C@H](N2CCC(Nc3cc(CN[C@H]4C[C@H](O)C4)nc(C(F)(F)F)n3)CC2)C1 [Example 30, {trans-3-(4-{[6-{[(trans-3-hydroxycyclobutyl)amino]methyl}-2-(trifluoromethyl)pyrimidin-4-yl]amino}piperidin-1-yl)-1-[4-(7H-pyrrolo[2,3-d]pyrimidin-4-yl)-1H-pyrazol-1-yl]cyclobutyl}acetonitrile] |
